These molecules were tested against Nanoluciferase-BRD9 fusion protein (3×FLAG-NLuc-BRD9) in SYO-1 cells (Homo sapiens (Human), UniProt Q9H8M2) (assay: SYO1 BRD9 NanoLuc degradation assay). Conditions: SYO-1 cells expressing 3×FLAG-NLuc-BRD9, 6 hours incubation, top dose 1 μM.
Sequence of Nanoluciferase-BRD9 fusion protein (3×FLAG-NLuc-BRD9) in SYO-1 cells (Q9H8M2 whole entry, the tested form may be a part): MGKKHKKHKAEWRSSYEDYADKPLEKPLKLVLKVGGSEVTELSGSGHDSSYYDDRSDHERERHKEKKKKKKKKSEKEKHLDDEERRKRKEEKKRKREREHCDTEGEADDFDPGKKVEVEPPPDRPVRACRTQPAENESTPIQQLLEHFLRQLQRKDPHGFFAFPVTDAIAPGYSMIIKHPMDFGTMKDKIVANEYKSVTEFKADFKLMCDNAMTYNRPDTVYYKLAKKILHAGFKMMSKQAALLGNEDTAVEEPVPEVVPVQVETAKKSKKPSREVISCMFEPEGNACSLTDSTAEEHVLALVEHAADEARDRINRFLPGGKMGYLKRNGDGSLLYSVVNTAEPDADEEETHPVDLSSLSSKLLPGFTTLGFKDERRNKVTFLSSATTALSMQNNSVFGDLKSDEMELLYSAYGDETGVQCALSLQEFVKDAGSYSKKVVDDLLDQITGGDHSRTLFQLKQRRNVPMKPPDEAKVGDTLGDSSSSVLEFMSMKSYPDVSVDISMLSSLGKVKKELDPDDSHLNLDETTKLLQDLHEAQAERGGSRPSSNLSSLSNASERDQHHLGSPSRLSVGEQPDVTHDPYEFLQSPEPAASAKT
Assay type: cell-based
Protocol: Procedure: A stable SYO-1 cell line expressing 3×FLAG-NLuc-BRD9 was generated. On day 0 cells were seeded in 30 μL media into each well of 384-well cell culture plates. The seeding density was 8000 cells/well. On day 1, cells were treated with 30 nL DMSO or 30 nL of 3-fold serially DMSO-diluted compounds (10 points in duplicates with 1 μM as final top dose). Subsequently plates were incubated for 6 hours in a standard tissue culture incubator and equilibrated at room temperature for 15 minutes. Nanoluciferase activity was measured by adding 15 μL of freshly prepared Nano-Glo Luciferase Assay Reagent (Promega N1130), shaking the plates for 10 minutes and reading the bioluminescence using an EnVision reader.
Results: The Inhibition % was calculated using the following formula: % Inhibition=100×(LumHC−LumSample)/(LumHC−LumLC). DMSO treated cells are employed as High Control (HC) and 1 μM of a known BRD9 degrader standard treated cells are employed as Low Control (LC).
`CNC(=O)N1CCc2c(-c3cc(OC)c(CN4CCN(CC5CCN(c6ccc7c(c6)CN(C6CCC(=O)NC6=O)C7=O)CC5)CC4)c(OC)c3)cn(C)c(=O)c2C1` (centres unmarked) [Compound D39] gave an IC50 of under 10 nM.
In the case of `CNC(=O)N1CCc2c(-c3cc(OC)c(CN4CCN(CC5CCN(c6ccc7c(c6)C(=O)N(C6CCC(=O)NC6=O)C7)CC5)CC4)c(OC)c3)cn(C)c(=O)c2C1` (centres unmarked) [Compound D40], the IC50 is reported as under 10 nM.
In the case of `CNC(=O)N1Cc2c(c(-c3cc(OC)c(CN4CCN(CCC5CCN(c6ccc7c(c6)C(=O)N(C6CCC(=O)NC6=O)C7=O)CC5)CC4)c(OC)c3)cn(C)c2=O)CC1C` (centres unmarked) [Compound D41], the IC50 is reported as under 10 nM.
`CNC(=O)N1CCc2c(-c3cc(OC)c(CN4C[C@@H](C)N(CCC5CCN(c6ccc7c(c6)C(=O)N(C6CCC(=O)NC6=O)C7=O)CC5)[C@@H](C)C4)c(OC)c3)cn(C)c(=O)c2C1` (some centres unmarked) [Compound D42] gave an IC50 of under 10 nM.
Work on `COCCNC(=O)N1CCc2c(-c3cc(OC)c(CN4CCN(CCC5CCN(c6ccc7c(c6)C(=O)N(C6CCC(=O)NC6=O)C7=O)CC5)CC4)c(OC)c3)cn(C)c(=O)c2C1` (centres unmarked) [Compound D43] yielded an IC50 of under 10 nM.
`[2H]C([2H])([2H])n1cc(-c2cc(OC)c(CN3CCC(CN4CCC5(CC4)CC(Oc4ccc6c(c4)C(=O)N(C4CCC(=O)NC4=O)C6=O)C5)CC3)c(OC)c2)c2c(c1=O)CN(C(=O)NC)CC2` (centres unmarked) [Compound D44] showed an IC50 of under 10 nM.
In the case of `[2H]C([2H])([2H])n1cc(-c2cc(OC)c(CN3CCN(CCC4CCN(c5ccc6c(c5)C(=O)N(C5CCC(=O)NC5=O)C6=O)CC4)CC3)c(OC)c2)c2c(c1=O)CN(C(=O)NC)CC2` (centres unmarked) [Compound D45], the IC50 is reported as under 10 nM.
With `COc1cc(-c2cn(C)c(=O)c3c2CCN(C(=O)NCC(F)F)C3)cc(OC)c1CN1CCN(CCC2CCN(c3ccc4c(c3)C(=O)N(C3CCC(=O)NC3=O)C4=O)CC2)CC1` (centres unmarked) [Compound D46] the IC50 was under 10 nM.
With `[2H]C([2H])([2H])NC(=O)N1CCc2c(-c3cc(OC)c(CN4CCC(CN5CCC6(CC5)CC(Oc5ccc7c(c5)C(=O)N(C5CCC(=O)NC5=O)C7=O)C6)CC4)c(OC)c3)cn(C)c(=O)c2C1` (centres unmarked) [Compound D47] the IC50 was under 10 nM.
Molecule `[2H]C([2H])([2H])NC(=O)N1CCc2c(-c3cc(OC)c(CN4CCN(CCC5CCN(c6ccc7c(c6)C(=O)N(C6CCC(=O)NC6=O)C7=O)CC5)CC4)c(OC)c3)cn(C)c(=O)c2C1` (centres unmarked) [Compound D48] has an IC50 of under 10 nM.
Molecule `CNC(=O)N1CCc2c(-c3cc(OC)c(CN4CCC(CCN5CCN(c6ccc7c(c6OC)CN(C6CCC(=O)NC6=O)C7=O)CC5)CC4)c(OC)c3)cn(C)c(=O)c2C1` (centres unmarked) [Compound D49] has an IC50 of under 10 nM.
In the case of `CNC(=O)N1CCc2c(-c3cc(OC)c(CN4CCC(CCN5CCN(c6cc7c(c(OC)c6)C(=O)N(C6CCC(=O)NC6=O)C7)CC5)CC4)c(OC)c3)cn(C)c(=O)c2C1` (centres unmarked) [Compound D50], the IC50 is reported as 10 to 100 nM.
Molecule `CNC(=O)N1CCc2c(-c3cc(OC)c(CN4CC(C(C)N5CCC6(CC5)CN(c5ccc7c(c5)CN(C5CCC(=O)NC5=O)C7)C6)C4)c(OC)c3)cn(C)c(=O)c2C1` (centres unmarked) [Compound D51] has an IC50 of under 10 nM.
`CNC(=O)N1CCc2c(-c3cc(OC)c(CN4CC(C(C)N5CCC6(CC5)CN(c5ccc7c(c5)C(=O)N(C5CCC(=O)NC5=O)C7)C6)C4)c(OC)c3)cn(C)c(=O)c2C1` (centres unmarked) [Compound D52] gave an IC50 of under 10 nM.
`CNC(=O)N1CCc2c(-c3cc(OC)c(CN4CC(N(C)c5ccc6c(c5)C(=O)N(C5CCC(=O)NC5=O)C6)C4)c(OC)c3)cn(C)c(=O)c2C1` (centres unmarked) [Compound D53] gave an IC50 of 10 to 100 nM.
`CNC(=O)N1CCc2c(-c3cc(OC)c(CN4CCC(CCN5CCN(c6ccc7c(c6)C6(CC6)N(C6CCC(=O)NC6=O)C7=O)CC5)CC4)c(OC)c3)cn(C)c(=O)c2C1` (centres unmarked) [Compound D54] gave an IC50 of at least 1000 nM.
With `CNC(=O)N1CCc2c(-c3cc(Cl)c(CN4CCN(CCC5CCN(c6ccc7c(c6)CN(C6CCC(=O)NC6=O)C7=O)CC5)CC4)c(OC)c3)cn(C)c(=O)c2C1` (centres unmarked) [Compound D55] the IC50 was under 10 nM.
`CNC(=O)N1CCc2c(-c3cc(OC)c(CN4CCC(CN5CCC6(CC5)CN(c5ccc7c(c5)CN(C5CCC(=O)NC5=O)C7=O)C6)CC4)c(OC)c3)cn(C)c(=O)c2C1` (centres unmarked) [Compound D56] was tested, and the IC50 was under 10 nM.
`CNC(=O)N1CCc2c(-c3cc(OC)c(CN4CCC(CCN5CCN(c6ccc7nn(C8CCC(=O)NC8=O)c(=O)n7c6)CC5)CC4)c(OC)c3)cn(C)c(=O)c2C1` (centres unmarked) [Compound D57] gave an IC50 of 10 to 100 nM.
`CNC(=S)N1CCc2c(-c3cc(OC)c(CN4CCC(CCN5CCN(c6ccc7c(c6)CN(C6CCC(=O)NC6=O)C7=O)CC5)CC4)c(OC)c3)cn(C)c(=O)c2C1` (centres unmarked) [Compound D58] was tested, and the IC50 was under 10 nM.
For `CNC(=O)N1CCc2c(-c3cc(OC)c(C(C)N4CC(CN5CCC6(CC5)CN(c5ccc7c(c5)C(=O)N(C5CCC(=O)NC5=O)C7)C6)C4)c(OC)c3)cn(C)c(=O)c2C1` (centres unmarked) [Compound D59], the IC50 was 10 to 100 nM.
With `CNC(=O)N1CCc2c(-c3cc(OC)c(CN4CCN(c5cnn(C6CCC(=O)NC6=O)c5)CC4)c(OC)c3)cn(C)c(=O)c2C1` (centres unmarked) [Compound D60] the IC50 was 100 to 1000 nM.
Work on `CNC(=O)N1CCc2c(-c3cc(OC)c(CN4CCN(c5ccn6c(=O)n(C7CCC(=O)NC7=O)nc6c5)CC4)c(OC)c3)cn(C)c(=O)c2C1` (centres unmarked) [Compound D61] yielded an IC50 of 100 to 1000 nM.
`CNC(=O)N1CCc2c(-c3cc(OC)c(CN4CCN(c5nn(C6CCC(=O)NC6=O)c(=O)n5C)CC4)c(OC)c3)cn(C)c(=O)c2C1` (centres unmarked) [Compound D62] gave an IC50 of at least 1000 nM.
`CNC(=S)N1CCc2c(-c3cc(OC)c(CN4CCC(CCN5CCN(c6ccc7c(c6)C(=O)N(C6CCC(=O)NC6=O)C7=O)CC5)CC4)c(OC)c3)cn(C)c(=O)c2C1` (centres unmarked) [Compound D63] gave an IC50 of under 10 nM.
`COC(=O)N1CCc2c(-c3cc(OC)c(CN4CCC(CCN5CCN(c6ccc7c(c6)C(=O)N(C6CCC(=O)NC6=O)C7=O)CC5)CC4)c(OC)c3)cn(C)c(=O)c2C1` (centres unmarked) [Compound D64] was tested, and the IC50 was under 10 nM.
In the case of `CNC(=O)N1CCc2c(-c3cc(OC)c(CN4CCC(CCN5CCN(c6ccc7nc(C)n(C8CCC(=O)NC8=O)c(=O)c7c6)CC5)CC4)c(OC)c3)cn(C)c(=O)c2C1` (centres unmarked) [Compound D65], the IC50 is reported as 100 to 1000 nM.
`COc1cc(-c2cn(C)c(=O)c3c2OCCN3)cc(OC)c1CN1CC(CN2CCC3(CC2)CN(c2ccc4c(c2)C(=O)N(C2CCC(=O)NC2=O)C4)C3)C1` (centres unmarked) [Compound D66] gave an IC50 of under 10 nM.
Work on `CNC(=O)N1CCc2c(-c3cc(OC)c(CN4CCC(CCCN5CCN(C6CCC(=O)NC6=O)C(=O)C5)CC4)c(OC)c3)cn(C)c(=O)c2C1` (centres unmarked) [Compound D67] yielded an IC50 of 100 to 1000 nM.
`CNC(=O)N1CCc2c(-c3cc(OC)c(CN4CCC(CCN5CCC(c6ccc7c(c6)CN(C6CCC(=O)NC6=O)C7=O)CC5)CC4)c(OC)c3)cn(C)c(=O)c2C1` (centres unmarked) [Compound D68] showed an IC50 of under 10 nM.
`CNC(=O)N1CCc2c(-c3cc(OC)c(CN4CCC(CCN5CCN(c6ccc7c(c6)C(=O)N(C6CCC(=O)NC6=O)C7)CC5)CC4)c(OC)c3)cn(C)c(=O)c2C1` (centres unmarked) [Compound D69] gave an IC50 of under 10 nM.
`CNC(=O)N1CCc2c(-c3cc(OC)c(CN4CCN(CCC5CCN(c6ccc7c(c6)C(=O)N(c6ccc(F)cc6F)C7=O)CC5)CC4)c(OC)c3)cn(C)c(=O)c2C1` [Compound D70] gave an IC50 of at least 1000 nM.
Molecule `CNC(=O)N1CCc2c(-c3cc(OC)c(CN4CCN(CCN5CCC(c6ccc7c(c6)C(=O)N(C6CCC(=O)NC6=O)C7)CC5)CC4)c(OC)c3)cn(C)c(=O)c2C1` (centres unmarked) [Compound D71] has an IC50 of under 10 nM.
Molecule `CNC(=O)N1CCc2c(-c3cc(OC)c(CN4CCN(CCN5CCC(c6ccc7c(c6)CN(C6CCC(=O)NC6=O)C7=O)CC5)CC4)c(OC)c3)cn(C)c(=O)c2C1` (centres unmarked) [Compound D72] has an IC50 of under 10 nM.
Work on `CNC(=O)N1CCc2c(-c3cc(OC)c(CN4CCC(CCN5CCC(c6ccc7c(c6)C(=O)N(C6CCC(=O)NC6=O)C7)CC5)CC4)c(OC)c3)cn(C)c(=O)c2C1` (centres unmarked) [Compound D73] yielded an IC50 of under 10 nM.
For `CNC(=O)N1CCc2c(-c3cc(OC)c(CN4CCC(CCN5CCN(C67CC8CC(CC(C8)C6)C7)CC5)CC4)c(OC)c3)cn(C)c(=O)c2C1` [Compound D74], the IC50 was at least 1000 nM.
With `CNC(=O)N1CCc2c(-c3cc(OC)c(CN4CCC(CCN5CCN(c6cc7c(c(F)c6F)CN(C6CCC(=O)NC6=O)C7=O)CC5)CC4)c(OC)c3)cn(C)c(=O)c2C1` (centres unmarked) [Compound D75] the IC50 was 10 to 100 nM.
Work on `CNC(=O)N1CCc2c(-c3cc(OC)c(CN4CCC(CCN5CCN(c6ccc(-c7cnn(C8CCC(=O)NC8=O)c7)cc6)CC5)CC4)c(OC)c3)cn(C)c(=O)c2C1` (centres unmarked) [Compound D76] yielded an IC50 of under 10 nM.
Molecule `CNC(=O)N1CCc2c(-c3cc(OC)c(CN4CCC(CCN5CCN(c6ccn7c(=O)n(C8CCC(=O)NC8=O)nc7c6)CC5)CC4)c(OC)c3)cn(C)c(=O)c2C1` (centres unmarked) [Compound D77] has an IC50 of 10 to 100 nM.
For `CNC(=O)N1CCc2c(-c3cc(OC)c(CN4CCC(CCN5CCN(c6c(F)cc7c(c6F)C(=O)N(C6CCC(=O)NC6=O)C7=O)CC5)CC4)c(OC)c3)cn(C)c(=O)c2C1` (centres unmarked) [Compound D78], the IC50 was under 10 nM.
`CNC(=O)N1CCc2c(-c3cc(CN4CCC(CCN5CCN(c6ccc7c(c6)C(=O)N(C6CCC(=O)NC6=O)C7=O)CC5)CC4)cc(OC)c3)cn(C)c(=O)c2C1` (centres unmarked) [Compound D79] showed an IC50 of at least 1000 nM.
`[2H]C1([2H])CC([2H])(N2C(=O)c3ccc(N4CCN(CCC5CCN(Cc6c(OC)cc(-c7cn(C)c(=O)c8c7CCN(C(=O)NC)C8)cc6OC)CC5)CC4)cc3C2=O)C(=O)NC1=O` (centres unmarked) [Compound D80] gave an IC50 of under 10 nM.
For `COc1cc(-c2cn(C)c(=O)c3c2CCN(C(=O)NC2CC2)C3)cc(OC)c1CN1CCC(CCN2CCN(c3ccc4c(c3)C(=O)N(C3CCC(=O)NC3=O)C4=O)CC2)CC1` (centres unmarked) [Compound D81], the IC50 was under 10 nM.

Same assay, conditions: SYO-1 cells, 6 hours, Table 6A
`CNC(=O)N1CCc2c(-c3cc(OC)c(CN(C)C(=O)CCCCCOc4cccc5c4C(=O)N(C4CCC(=O)NC4=O)C5=O)c(OC)c3)cn(C)c(=O)c2C1` (centres unmarked) [Compound D25, 5-[4-[(6-[[2-(2,6-dioxopiperidin-3-yl)-1,3-dioxoisoindol-4-yl]oxy]-N-methylhexanamido)methyl]-3,5-dimethoxyphenyl]-N,7-dimethyl-8-oxo-3,4-dihydro-1H-2,7-naphthyridine-2-carboxamide] showed an IC50 of under 10 nM.
